From patent US11524966B1 (Valo Early Discovery, Inc., priority 2017, dated 2022)

target: T1, USP28 (USP28-5(1-1077)-TEV-6*His; LifeSensors) (Homo sapiens, UniProt Q96RU2); experiment: Ubiquitin-Rhodamine 110 Assay for USP28 Activity, Example A-1(b); type: biochemical; details: Ubiquitin-Rhodamine 110 assay, Example A-1(b)
T1 construct: construct USP28 (USP28-5(1-1077)-TEV-6*His; LifeSensors); TEV cleavage site (C); 6xHis (C); purchased LifeSensors
T1 sequence (Q96RU2 1-1077): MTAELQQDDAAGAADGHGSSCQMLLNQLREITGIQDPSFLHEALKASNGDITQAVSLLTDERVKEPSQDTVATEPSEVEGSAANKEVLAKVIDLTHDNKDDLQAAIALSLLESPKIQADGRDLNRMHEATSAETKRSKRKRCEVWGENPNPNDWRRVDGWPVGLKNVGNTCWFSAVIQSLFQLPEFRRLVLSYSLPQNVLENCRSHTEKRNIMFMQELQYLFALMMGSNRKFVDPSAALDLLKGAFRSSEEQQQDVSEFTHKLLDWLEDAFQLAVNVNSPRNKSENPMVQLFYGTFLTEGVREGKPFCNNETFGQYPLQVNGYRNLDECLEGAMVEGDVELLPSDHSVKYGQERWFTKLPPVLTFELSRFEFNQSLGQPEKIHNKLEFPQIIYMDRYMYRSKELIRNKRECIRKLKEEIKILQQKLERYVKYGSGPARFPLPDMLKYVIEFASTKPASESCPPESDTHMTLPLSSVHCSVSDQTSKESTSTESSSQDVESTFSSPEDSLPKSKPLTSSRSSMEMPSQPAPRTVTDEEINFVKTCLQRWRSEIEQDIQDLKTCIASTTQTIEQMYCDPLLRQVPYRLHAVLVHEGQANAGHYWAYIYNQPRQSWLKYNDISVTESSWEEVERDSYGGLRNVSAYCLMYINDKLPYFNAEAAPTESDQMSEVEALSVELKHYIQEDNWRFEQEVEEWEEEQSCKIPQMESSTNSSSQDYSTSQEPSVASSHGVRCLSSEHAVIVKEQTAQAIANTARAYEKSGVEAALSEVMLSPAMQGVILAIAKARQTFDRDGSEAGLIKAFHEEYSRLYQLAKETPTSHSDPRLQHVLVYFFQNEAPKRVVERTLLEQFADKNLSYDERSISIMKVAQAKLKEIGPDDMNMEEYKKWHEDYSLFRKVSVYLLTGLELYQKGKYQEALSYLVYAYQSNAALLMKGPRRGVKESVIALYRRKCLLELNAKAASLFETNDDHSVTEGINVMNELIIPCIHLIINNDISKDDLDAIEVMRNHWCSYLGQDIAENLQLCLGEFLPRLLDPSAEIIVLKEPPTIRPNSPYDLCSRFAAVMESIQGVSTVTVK
Summary of the method: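 Single-point screening used 10 μM compound with 90 min room-temperature incubation; follow-up dose-responses (25 μM top, 3-fold) used 75 pM USP28 1-1077 construct, 30 min compound preincubation, 25 nM Ub-Rh110, 20 min reaction, citric acid quench. Rh110 fluorescence normalised to no-enzyme and DMSO controls; IC50 from 4-parameter logistic fit.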

Compound | USP28 A-1(b) IC50 range
Cc1cnc2c(N)c(C(=O)N[C@H]3COc4cc(N5CC6CNCC(C5)O6)cc(F)c4C3)sc2n1 [Example 10-12, N-((3R)-7-(9-oxa-3,7-diazabicyclo[3.3.1]nonan-3-yl)-5-fluorochroman-3-yl)-7-amino-3-methylthieno[2,3-b]pyrazine-6-carboxamide] | ++++ (0.001-0.05 μM)
Cc1ccc2c(N)c(C(=O)N[C@@H]3CCc4cc(N5CC6CCC(C5)N6)ccc4C3)sc2n1 [Example 11-2, N-((2R)-6-(3,8-diazabicyclo[3.2.1]octan-3-yl)-1,2,3,4-tetrahydronaphthalen-2-yl)-3-amino-6-methylthieno[2,3-b]pyridine-2-carboxamide] | ++ (0.2-2 μM)
Cc1ccc2c(N)c(C(=O)N[C@H]3CCc4cc(N5CCN[C@H](CO)C5)ccc4C3)sc2n1 (single isomer, unassigned) [Example 7-8] | + (>2 μM)
Cc1cnc2c(N)c(C(=O)N[C@@H]3CCc4cc(N5CC6CCC(C5)N6)cc(F)c4C3)sc2n1 (single isomer, unassigned) [Example 11-14] | +++ (0.05-0.2 μM)
Cc1ccc2c(N)c(C(=O)N[C@@H]3COc4cc(N5CCNCC5)cc(F)c4C3)sc2n1 [Example 10-5, (S)-3-amino-N-(5-fluoro-7-(piperazin-1-yl)chroman-3-yl)-6-methylthieno[2,3-b]pyridine-2-carboxamide] | + (>2 μM)
Cc1cc(C)c2c(N)c(C(=O)N[C@H]3COc4cc(N5CC6CNCC(C5)O6)cc(F)c4C3)sc2n1 [Example 10-13, N-((3R)-7-(9-oxa-3,7-diazabicyclo[3.3.1]nonan-3-yl)-5-fluorochroman-3-yl)-3-amino-4,6-dimethylthieno[2,3-b]pyridine-2-carboxamide] | ++++ (0.001-0.05 μM)
Cc1ccc2c(N)c(C(=O)N[C@H]3COc4cc(N5CC6CNCC(C5)O6)cc(F)c4C3)sc2n1 [Example 10-6, N-((3R)-7-(9-oxa-3,7-diazabicyclo[3.3.1]nonan-3-yl)-5-fluorochroman-3-yl)-3-amino-6-methylthieno[2,3-b]pyridine-2-carboxamide] | ++++ (0.001-0.05 μM)
Cc1ccc2c(N)c(C(=O)N[C@@H]3COc4cc(N5CCNCC5)ccc4[C@@H]3C)sc2n1 (single isomer, unassigned) [Example 11-18] | + (>2 μM)

same assay, conditions: Ubiquitin-Rhodamine 110 assay, format Example A-1(b)

Compound | USP28 A-1(b) IC50 range
Cc1ccc2c(N)c(C(=O)N[C@H]3CCc4cc(N5CC6CCC(C5)N6)c(F)cc4C3)sc2n1 (single isomer, unassigned) [Example 21-4] | ++ (0.2-2 μM)
Cc1ccc2c(N)c(C(=O)N[C@H]3CCc4cc(N5CCNCC5)c(F)cc4C3)sc2n1 (single isomer, unassigned) [Example 21-8] | + (>2 μM)
Cc1ccc2c(N)c(C(=O)N[C@H]3CCc4cc(N5CCNCC5)cnc4C3)sc2n1 (single isomer, unassigned) [Example 15-2] | + (>2 μM)
Cc1ccc2c(N)c(C(=O)N[C@H]3CCc4c(ccc(N5CC6CCC(C5)N6)c4F)C3)sc2n1 (single isomer, unassigned) [Example 21-2] | ++ (0.2-2 μM)
